Measured values taken from patent publication US12077503B2, “Substituted cyclic amides and their use as herbicides” (FMC CORPORATION, priority 2015, dated 2024).

Experiments:
Assay type in all cases: in vivo
corn (Zea mays) [1] = assay: Test G Post-Emergence Protocol; settings: Zea mays, post-emergence, 312 h, read-out: Corn damage rating; for plant injury at 15.625 g/ha: 15.625 g ai/ha, evaluated after 13 days (100=total damage to plant; 0=no damage to plant); for plant injury at 62.5 g/ha: 62.5 g ai/ha; for plant injury at 62.5 g/ha / plant injury at 250 g/ha: evaluated after 13 days, 100=total damage to plant, 0=no damage to plant; for plant injury at 250 g/ha: 250 g ai/ha
Procedure, shortened: (§1)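 Damage was rated 13 days after treatment from 0 (none) to 100 (plant killed). Compound was applied as a spray at 15.625, 62.5 or 250 g/ha in 50:50 acetone/water containing 0.5% Tween 20, onto 8-day-old potted plants kept in a glasshouse (24/16 °C, 14 h light, 65% humidity).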

[2] = test system: velvetleaf (Abutilon theophrasti); assay: Test G Post-Emergence Protocol; settings: Abutilon theophrasti, post-emergence, 312 h, read-out: Velvetleaf damage rating; for pest or weed control at 15.625 g/ha: 15.625 g ai/ha, evaluated after 13 days (100=total damage to plant; 0=no damage to plant); for pest or weed control at 62.5 g/ha: 62.5 g ai/ha; for pest or weed control at 62.5 g/ha / pest or weed control at 250 g/ha: evaluated after 13 days, 100=total damage to plant, 0=no damage to plant; for pest or weed control at 250 g/ha: 250 g ai/ha
Procedure, shortened: as §1

[3] = test system: giant foxtail (Setaria faberi); assay: Test G Post-Emergence Protocol; settings: Setaria faberi, post-emergence, 312 h, read-out: Foxtail, Giant damage rating; for pest or weed control at 15.625 g/ha: 15.625 g ai/ha, evaluated after 13 days (100=total damage to plant; 0=no damage to plant); for pest or weed control at 62.5 g/ha: 62.5 g ai/ha; for pest or weed control at 62.5 g/ha / pest or weed control at 250 g/ha: evaluated after 13 days, 100=total damage to plant, 0=no damage to plant; for pest or weed control at 250 g/ha: 250 g ai/ha
Procedure, shortened: as §1

[4] = test system: redroot pigweed (Amaranthus retroflexus); assay: Test G Post-Emergence Protocol; settings: Amaranthus retroflexus, post-emergence, 312 h, read-out: Pigweed, Redroot damage rating; for pest or weed control at 15.625 g/ha: 15.625 g ai/ha, evaluated after 13 days (100=total damage to plant; 0=no damage to plant); for pest or weed control at 62.5 g/ha: 62.5 g ai/ha; for pest or weed control at 62.5 g/ha / pest or weed control at 250 g/ha: evaluated after 13 days, 100=total damage to plant, 0=no damage to plant; for pest or weed control at 250 g/ha: 250 g ai/ha
Procedure, shortened: as §1

[5] = test system: ivy-leaved morning glory (Ipomoea hederacea); assay: Test G Post-Emergence Protocol; settings: Ipomoea, post-emergence, 312 h, read-out: Morningglory, Ivy-leaved damage rating; for pest or weed control at 15.625 g/ha: 15.625 g ai/ha, evaluated after 13 days (100=total damage to plant; 0=no damage to plant); for pest or weed control at 62.5 g/ha: 62.5 g ai/ha; for pest or weed control at 62.5 g/ha / pest or weed control at 250 g/ha: evaluated after 13 days, 100=total damage to plant, 0=no damage to plant; for pest or weed control at 250 g/ha: 250 g ai/ha
Procedure, shortened: as §1

[6] = test system: barnyardgrass (Echinochloa crus-galli); assay: Test G Post-Emergence Protocol; settings: Echinochloa crus-galli, post-emergence, 312 h, read-out: Barnyardgrass damage rating; for pest or weed control at 15.625 g/ha: 15.625 g ai/ha, evaluated after 13 days (100=total damage to plant; 0=no damage to plant); for pest or weed control at 62.5 g/ha: 62.5 g ai/ha; for pest or weed control at 62.5 g/ha / pest or weed control at 250 g/ha: evaluated after 13 days, 100=total damage to plant, 0=no damage to plant; for pest or weed control at 250 g/ha: 250 g ai/ha
Procedure, shortened: as §1

corn (Zea mays) [7] = assay: Test G Pre-Emergence Protocol; settings: Zea mays, pre-emergence, 312 h, evaluated after 13 days; for plant injury at 15.625 g/ha: 15.625 g ai/ha; for plant injury at 15.625 g/ha / plant injury at 250 g/ha: read-out: Corn damage rating (100=total damage to plant; 0=no damage to plant); for plant injury at 62.5 g/ha: 62.5 g ai/ha, 100=total damage to plant, 0=no damage to plant, read-out: Corn damage rating; for plant injury at 250 g/ha: 250 g ai/ha
Procedure, shortened: (§2)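 Seeds were sown in standard soil and kept one day in a glasshouse (24/16° C day/night, 14 h light, 65% humidity), then sprayed with compound in acetone/water (50:50) containing 0.5% Tween 20 at 15.625, 62.5 or 250 g/ha. Damage was scored after 13 days (0 = none, 100 = total).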

[8] = test system: velvetleaf (Abutilon theophrasti); assay: Test G Pre-Emergence Protocol; settings: Abutilon theophrasti, pre-emergence, 312 h, evaluated after 13 days; for pest or weed control at 15.625 g/ha: 15.625 g ai/ha; for pest or weed control at 15.625 g/ha / pest or weed control at 250 g/ha: read-out: Velvetleaf damage rating (100=total damage to plant; 0=no damage to plant); for pest or weed control at 62.5 g/ha: 62.5 g ai/ha, 100=total damage to plant, 0=no damage to plant, read-out: Velvetleaf damage rating; for pest or weed control at 250 g/ha: 250 g ai/ha
Procedure, shortened: as §2

[9] = test system: giant foxtail (Setaria faberi); assay: Test G Pre-Emergence Protocol; settings: Setaria faberi, pre-emergence, 312 h, evaluated after 13 days; for pest or weed control at 15.625 g/ha: 15.625 g ai/ha; for pest or weed control at 15.625 g/ha / pest or weed control at 250 g/ha: read-out: Foxtail, Giant damage rating (100=total damage to plant; 0=no damage to plant); for pest or weed control at 62.5 g/ha: 62.5 g ai/ha, 100=total damage to plant, 0=no damage to plant, read-out: Foxtail, Giant damage rating; for pest or weed control at 250 g/ha: 250 g ai/ha
Procedure, shortened: as §2

[10] = test system: redroot pigweed (Amaranthus retroflexus); assay: Test G Pre-Emergence Protocol; settings: Amaranthus retroflexus, pre-emergence, 312 h, evaluated after 13 days; for pest or weed control at 15.625 g/ha: 15.625 g ai/ha; for pest or weed control at 15.625 g/ha / pest or weed control at 250 g/ha: read-out: Pigweed, Redroot damage rating (100=total damage to plant; 0=no damage to plant); for pest or weed control at 62.5 g/ha: 62.5 g ai/ha, 100=total damage to plant, 0=no damage to plant, read-out: Pigweed, Redroot damage rating; for pest or weed control at 250 g/ha: 250 g ai/ha
Procedure, shortened: as §2

[11] = test system: ivy-leaved morning glory (Ipomoea hederacea); assay: Test G Pre-Emergence Protocol; settings: Ipomoea, pre-emergence, 312 h, evaluated after 13 days; for pest or weed control at 15.625 g/ha: 15.625 g ai/ha; for pest or weed control at 15.625 g/ha / pest or weed control at 250 g/ha: read-out: Morningglory, Ivy-leaved damage rating (100=total damage to plant; 0=no damage to plant); for pest or weed control at 250 g/ha: 250 g ai/ha; for pest or weed control at 62.5 g/ha: 62.5 g ai/ha, 100=total damage to plant, 0=no damage to plant, read-out: Morningglory, Ivy-leaved damage rating
Procedure, shortened: as §2

[12] = test system: barnyardgrass (Echinochloa crus-galli); assay: Test G Pre-Emergence Protocol; settings: Echinochloa crus-galli, pre-emergence, 312 h, evaluated after 13 days; for pest or weed control at 15.625 g/ha: 15.625 g ai/ha; for pest or weed control at 15.625 g/ha / pest or weed control at 250 g/ha: read-out: Barnyardgrass damage rating (100=total damage to plant; 0=no damage to plant); for pest or weed control at 62.5 g/ha: 62.5 g ai/ha, 100=total damage to plant, 0=no damage to plant, read-out: Barnyardgrass damage rating; for pest or weed control at 250 g/ha: 250 g ai/ha
Procedure, shortened: as §2

Row | Compound | plant injury at 15.625 g/ha (corn (Zea mays) [1]) [%] | plant injury at 62.5 g/ha (corn (Zea mays) [1]) [%] | plant injury at 250 g/ha (corn (Zea mays) [1]) [%] | pest or weed control at 15.625 g/ha [2] [%] | pest or weed control at 62.5 g/ha [2] [%] | pest or weed control at 250 g/ha [2] [%] | pest or weed control at 15.625 g/ha [3] [%] | pest or weed control at 62.5 g/ha [3] [%] | pest or weed control at 250 g/ha [3] [%] | pest or weed control at 15.625 g/ha [4] [%] | pest or weed control at 62.5 g/ha [4] [%] | pest or weed control at 250 g/ha [4] [%] | pest or weed control at 15.625 g/ha [5] [%] | pest or weed control at 62.5 g/ha [5] [%] | pest or weed control at 250 g/ha [5] [%] | pest or weed control at 15.625 g/ha [6] [%] | pest or weed control at 62.5 g/ha [6] [%] | pest or weed control at 250 g/ha [6] [%] | plant injury at 15.625 g/ha (corn (Zea mays) [7]) [%] | plant injury at 62.5 g/ha (corn (Zea mays) [7]) [%] | further results
1 | CN1C[C@H](c2cc(C(C)(C)C)ncn2)[C@@H](C(=O)Nc2cccc(F)c2F)C1=O (racemic) [Compound 1667] | 0 | 0 | 0 | 0 | 0 | 0 | 0 | 0 | 20 | 0 | 0 | 0 | 0 | 0 | 0 | 0 | 0 | 10 | 0 | 0 | plant injury at 250 g/ha (corn (Zea mays) [7]): 0%; pest or weed control at 15.625 g/ha [8]: 0%; pest or weed control at 62.5 g/ha [8]: 0%; pest or weed control at 250 g/ha [8]: 0%; pest or weed control at 15.625 g/ha [9]: 0%; pest or weed control at 62.5 g/ha [9]: 10%; pest or weed control at 250 g/ha [9]: 20%; pest or weed control at 15.625 g/ha [10]: 0%; pest or weed control at 62.5 g/ha [10]: 0%; pest or weed control at 250 g/ha [10]: 0%; pest or weed control at 15.625 g/ha [11]: 0%; pest or weed control at 250 g/ha [11]: 30%; pest or weed control at 15.625 g/ha [12]: 0%; pest or weed control at 62.5 g/ha [12]: 10%; pest or weed control at 250 g/ha [12]: 20%
2 | COC(=O)c1cc([C@H]2CN(C)C(=O)[C@@H]2C(=O)Nc2cccc(F)c2F)ccc1F (racemic) [Compound 1678] | 0 | 0 | 0 | 0 | 0 | 0 | 0 | 10 | 20 | 10 | 10 | 30 | 0 | 0 | 0 | 0 | 10 | 30 | 0 | 0 | plant injury at 250 g/ha (corn (Zea mays) [7]): 0%; pest or weed control at 15.625 g/ha [8]: 0%; pest or weed control at 62.5 g/ha [8]: 0%; pest or weed control at 250 g/ha [8]: 0%; pest or weed control at 15.625 g/ha [9]: 0%; pest or weed control at 62.5 g/ha [9]: 0%; pest or weed control at 250 g/ha [9]: 0%; pest or weed control at 15.625 g/ha [10]: 0%; pest or weed control at 62.5 g/ha [10]: 0%; pest or weed control at 250 g/ha [10]: 0%; pest or weed control at 15.625 g/ha [11]: 0%; pest or weed control at 62.5 g/ha [11]: 0%; pest or weed control at 250 g/ha [11]: 0%; pest or weed control at 15.625 g/ha [12]: 0%; pest or weed control at 62.5 g/ha [12]: 0%; pest or weed control at 250 g/ha [12]: 0%
3 | Cc1cc(C)cc([C@H]2CN(C)C(=O)[C@@H]2C(=O)Nc2ccccc2S(C)(=O)=O)c1 (racemic) [Compound 1727] | 0 | 0 | 10 | 0 | 0 | 10 | 30 | 80 | 80 | 0 | 0 | 0 | 0 | 30 | 50 | 20 | 70 | 70 | 0 | 0 | plant injury at 250 g/ha (corn (Zea mays) [7]): 0%; pest or weed control at 15.625 g/ha [8]: 0%; pest or weed control at 62.5 g/ha [8]: 0%; pest or weed control at 250 g/ha [8]: 0%; pest or weed control at 15.625 g/ha [9]: 50%; pest or weed control at 62.5 g/ha [9]: 60%; pest or weed control at 250 g/ha [9]: 80%; pest or weed control at 15.625 g/ha [10]: 0%; pest or weed control at 62.5 g/ha [10]: 0%; pest or weed control at 250 g/ha [10]: 30%; pest or weed control at 15.625 g/ha [11]: 0%; pest or weed control at 62.5 g/ha [11]: 0%; pest or weed control at 250 g/ha [11]: 10%; pest or weed control at 15.625 g/ha [12]: 30%; pest or weed control at 62.5 g/ha [12]: 40%; pest or weed control at 250 g/ha [12]: 80%
